Test results: publication PMC9696794, “Synthesis and Antimicrobial Activity of Short Analogues of the Marine Antimicrobial Peptide Turgencin A: Effects of SAR Optimizations, Cys-Cys Cyclization and Lipopeptide Modifications” (International Journal of Molecular Sciences, 2022)
Where a SMILES comes first, the peptide text is derived from it. The star is where a group is joined. Lauroyl = CCCCCCCCCCCC(=O)*; Decanoyl = CCCCCCCCCC(=O)*; Octanoyl = CCCCCCCC(=O)*

Tests used:
[1] = test system: B. subtilis (Bs, ATCC 23857); assay: microbe, parasite or virus in culture; format: cell-based, Bacillus subtilis; settings: ATCC 23857, 24 h
Method: (§1) All cyclic and linear peptides were screened for antibacterial activity against four Gram-positive strains: B. subtilis (Bs, ATCC 23857), C. glutamicum (Cg, ATCC 13032), S. aureus (Sa, ATCC 9144) and S. epidermidis RP62A (Se, ATCC 35984), and two Gram-negative strains: E. coli (Ec, ATCC 25922) and P. aeruginosa (Pa, ATCC 27853). The activity was assessed using a broth microdilution assay according to a modified CLSI-based method. Briefly, overnight bacterial cultures were grown in Mueller–Hinton (MH) broth medium (Difco Laboratories, Detroit, MI, USA) for 2 h at room temperature. The optical density (OD600) was measured, and the bacterial suspensions were adjusted to 2.5–3 × 10^4 CFU/mL in MH medium. The bacterial suspension (50 µL) was distributed in 96-well plates (Nunc, Roskilde, Denmark) preloaded with two-fold dilution series (256 to 1 µg/mL) of peptide solutions (50 µL), giving a final well volume of 100 µL. The microplates were incubated in an EnVision 2103 microplate reader (PerkinElmer, Llantrisant, UK) at 35 °C, with OD595 recorded every hour for 24 h. MIC was defined as the lowest concentration of peptides showing an optical density less than 10% of the negative (growth) control, consisting of bacterial suspension and water. Polymyxin B sulfate (Sigma-Aldrich, St. Louis, MO, USA) and chlorhexidine acetate (CHX, Fresenius Kabi, Halden, Norway), both with concentrations ranging from 12.5 to 0.09 μg/mL, served as positive (growth inhibition) controls. All peptides were tested in triplicate.

[2] = test system: C. glutamicum (Cg, ATCC 13032); assay: microbe, parasite or virus in culture; format: cell-based, Corynebacterium glutamicum; settings: ATCC 13032, 24 h
Method: as §1

[3] = test system: S. aureus (Sa, ATCC 9144); assay: microbe, parasite or virus in culture; format: cell-based, Staphylococcus aureus; settings: ATCC 9144, 24 h
Method: as §1

[4] = test system: S. epidermidis RP62A (Se, ATCC 35984); assay: microbe, parasite or virus in culture; format: cell-based, Staphylococcus epidermidis; settings: ATCC 35984, 24 h
Method: as §1

E. coli (Ec, ATCC 25922) = assay: microbe, parasite or virus in culture; format: cell-based, Escherichia coli; settings: ATCC 25922, 24 h
Method: as §1

[5] = test system: P. aeruginosa (Pa, ATCC 27853); assay: microbe, parasite or virus in culture; format: cell-based, Pseudomonas aeruginosa; settings: ATCC 27853, 24 h
Method: as §1

all bacterial strains = assay: Antibacterial MIC assay, all bacterial strains together (range or geometric mean); format: cell-based; settings: for GM (geometric mean of the MIC values against all bacterial strains): Table 1, six bacterial strains; for GM of MIC Tot. bact.: Table S3, all bacterial test strains, MIC >256 set to 256
Method: The selectivity index (SI) of the peptides towards bacteria over eukaryotic cells was calculated using the geometric mean (GM) of the MIC values against all bacterial test strains, according to the method by Orlov et al.. The SI for each peptide was determined as the ratio of the RBC-EC50 value by the corresponding GM value. Larger SI values indicate greater selectivity for microbial cells. […] In general, the SI was higher against the Gram-positive bacteral strains than the Gram-negative strains. (Table S3). Overall, peptides displaying EC50 < 100 µg/mL were considered too haemolytic to be of interest for further exploration.
as §1

A. pullulans (Ap) = assay: microbe, parasite or virus in culture; format: cell-based, Aurobasidium pollulans; settings: 48 h
Method: (§2) The synthesized peptides were screened for antifungal activity against the molds A. pullulans (Ap) and Rhodotorula sp. (Rh) (both obtained from Professor Arne Tronsmo, The Norwegian University of Life Sciences, Ås, Norway) and the yeast C. albicans (Ca, ATCC 10231) as previously described. In short, fungal spores were grown in potato dextrose broth media (Difco) containing 2% D(+)-glucose (Merck, Darmstadt, Germany) at 25–30 °C while shaking at 200 rpm overnight. The cultures were diluted with a dextrose media containing glucose to a concentration of approx. 4 × 10^5 spores/mL. Aliquots of the cultures (50 µL) were transferred to 96 well microtiter plates preloaded with the synthetic peptides (50 µL) in two-fold serial dilutions (256 to 1 µg/mL). Polymyxin B and CHX (both with concentrations ranging from 12.5 to 0.09 μg/mL) served as positive antibiotic controls. The microtiter plates containing the fungal spores and the test peptides were incubated at room temperature for 48 h and OD600 was recorded using a Synergy H1 Hybrid microplate reader system (BioTek, Winooski, VT, USA). MIC was defined as the lowest peptide concentration showing an optical density less than 10% of the negative (growth) control. All experiments were performed in triplicate.

[6] = test system: C. albicans (Ca, ATCC 10231); assay: microbe, parasite or virus in culture; format: cell-based, Candida albicans; settings: ATCC 10231, 48 h
Method: as §2

Rhodotorula sp. (Rh) = assay: microbe, parasite or virus in culture; format: cell-based; settings: 48 h
Method: as §2

[7] = test system: human red blood cells (RBC); assay: Haemolytic activity assay; format: cell-based; settings: for Selectivity index (SI) G- / Selectivity index (SI) G+ / Selectivity index (SI) Fungi: Table S3, highest tested concentration used where EC50 above it; for Selectivity index (SI) G-: EC50/GM of Gram-negative strains; for Selectivity index (SI) G+: EC50/GM of Gram-positive strains; for Selectivity index (SI) Fungi: EC50/GM of fungi; for SI (selectivity index = EC50/GM): haemolytic EC50 over GM of MIC against all bacterial strains, Table 1; for RBC Tox. (EC50), haemolytic activity: human RBC, 1 h, 37 °C, concentration giving 50% haemolysis
Method: The synthetized lipopeptides were screened for haemolytic activity against human red blood cells (RBC), in concentrations ranging from 500 to 3.9 μM, following a previously described protocol. In brief, haemolysis was determined using a heparinizied (10 IU/mL) fraction of freshly drawn human blood. A second fraction of blood, which was collected in test tubes containing ethylenediaminetetraacetic acid (EDTA, Vacutest, KIMA, Arzergrande, Italy), was used for determination of the hematocrit (hct). Plasma was removed from heparinized blood by washing three times with prewarmed phosphate-buffered saline (PBS) before being adjusted to a hematocrit of 4%. Peptides dissolved in dimethyl sulfoxide (DMSO) were further diluted with PBS to a final DMSO content of ≤1%. Triton X-100 (Sigma-Aldrich, St. Louis, MO, USA), used at a final concentration of 0.1%, served as a positive control for 100% haemolysis, whereas 1% DMSO in PBS buffer served as a negative control where no toxicity was detected. Duplicates of test solutions and erythrocytes, with 1% hct final concentration, were prepared in a 96-well polypropylene V-bottom plate (Nunc, Fischer scientific, Oslo, Norway). They were incubated under agitation at 37 °C and 800 rpm for 1 h. After centrifugation (5 min, 3000× g), 100 µL from each well were transferred to a flat-bottomed 96-well plate and absorbance was measured at 545 nm with a microplate reader (SpectraMax 190, Molecular Devices, San Jose, CA, USA). After subtracting PBS background, the percentage of haemolysis was calculated as the ratio of the absorbance in the peptide-treated and surfactant-treated samples. Three independent experiments were performed, and EC50 (the concentration giving 50% haemolysis) values are presented as averages.

[8] = test system: Gram-positive bacterial strains; settings: for GM of MIC G+: Table S3, MIC >256 set to 256
Method: as §1

[9] = test system: Gram-negative bacterial strains (E. coli and P. aeruginosa); assay: Antibacterial MIC assay, Gram-negative strains together (range or geometric mean); format: cell-based; settings: Table S3; MIC >256 set to 256
Method: as §1

[10] = test system: fungi (A. pullulans, C. albicans, Rhodotorula sp.); assay: Antifungal MIC assay, all fungi together (range or geometric mean); format: cell-based; settings: Table S3; MIC >128 set to 128
Method: as §2

| Structure (SMILES) | Antimicrobial Activity (MIC) Gram + Bs [1] | Antimicrobial Activity (MIC) Gram + Cg [2] | Antimicrobial Activity (MIC) Gram + Sa [3] | Antimicrobial Activity (MIC) Gram + Se [4] | Antimicrobial Activity (MIC) Gram − Ec (E. coli (Ec, ATCC 25922)) | Antimicrobial Activity (MIC) Gram − Pa [5] | GM (geometric mean of the MIC values against all bacterial strains) (all bacterial strains) | GM of MIC Tot. bact. (all bacterial strains) | Antimicrobial Activity (MIC) Fungi Ap (A. pullulans (Ap)) | Antimicrobial Activity (MIC) Fungi Ca [6] | Antimicrobial Activity (MIC) Fungi Rh (Rhodotorula sp. (Rh)) | Selectivity index (SI) G- [7] | Selectivity index (SI) G+ [7] | Selectivity index (SI) Fungi [7] | SI (selectivity index = EC50/GM) [7] | RBC Tox. (EC50), haemolytic activity [7] | GM of MIC G+ [8] | GM of MIC G- [9] | GM of MIC Fungi [10] | MIC against the Gram-positive bacterial strains ([8]; 2 h) |
| --- | --- | --- | --- | --- | --- | --- | --- | --- | --- | --- | --- | --- | --- | --- | --- | --- | --- | --- | --- | --- |
| CCCCCCCC(=O)N[C@@H](CS)C(=O)NCC(=O)N[C@@H](CCCNC(=N)N)C(=O)N[C@@H](CCCNC(=N)N)C(=O)N[C@@H](Cc1c[nH]c2ccccc12)C(=O)NCC(=O)N[C@@H](Cc1c[nH]c2ccccc12)C(=O)N[C@@H](Cc1c[nH]c2ccccc12)C(=O)N[C@@H](CCCNC(=N)N)C(=O)N[C@@H](CS)C(=O)N[C@@H](CCCNC(=N)N)C(=O)N[C@@H](CC(C)C)C(N)=O [Peptide C8-Turg-6, C8- CGRRWGWWRC RL-NH2] (Octanoyl-CGRRWGWWRCRL-NH2) | 4 mg/L | 4 mg/L | 16 mg/L | 8 mg/L | 8 mg/L | 32 mg/L | 9 mg/L | 9 mg/L | 128 mg/L | 64 mg/L | 128 mg/L | 3 | 8 | 1 | 6 | 54 mg/L | 7 mg/L | 16 mg/L | 102 mg/L | – |
| CCCCCCCCCC(=O)N[C@@H](CS)C(=O)NCC(=O)N[C@@H](CCCCN)C(=O)N[C@@H](CCCCN)C(=O)N1CCC[C@H]1C(=O)NCC(=O)NCC(=O)N[C@@H](Cc1c[nH]c2ccccc12)C(=O)N[C@@H](CCCCN)C(=O)N[C@@H](CS)C(=O)N[C@@H](CCCCN)C(=O)N[C@@H](CC(C)C)C(N)=O [Peptide C10-Turg-1, C10- CGKKPGGWKC KL-NH2] (Decanoyl-CGKKPGGWKCKL-NH2) | 4 mg/L | 4 mg/L | 16 mg/L | 8 mg/L | 16 mg/L | 32 mg/L | 10 mg/L | 10 mg/L | 32 mg/L | 64 mg/L | 8 mg/L | > 42 | > 142 | > 38 | >95 | >957 mg/L | 7 mg/L | 23 mg/L | 25 mg/L | – |
| CCCCCCCCCC(=O)N[C@@H](CS)C(=O)NCC(=O)N[C@@H](CCCCN)C(=O)N[C@@H](CCCCN)C(=O)N[C@@H](Cc1c[nH]c2ccccc12)C(=O)N[C@@H](Cc1c[nH]c2ccccc12)C(=O)NCC(=O)N[C@@H](Cc1c[nH]c2ccccc12)C(=O)N[C@@H](CCCCN)C(=O)N[C@@H](CS)C(=O)N[C@@H](CCCCN)C(=O)N[C@@H](CC(C)C)C(N)=O [Peptide C10-Turg-2, C10- CGKKWWGWKC KL-NH2] (Decanoyl-CGKKWWGWKCKL-NH2) | 8 mg/L | 4 mg/L | 8 mg/L | 8 mg/L | 8 mg/L | 16 mg/L | 8 mg/L | 8 mg/L | 32 mg/L | 64 mg/L | 32 mg/L | 6 | 10 | 2 | 8 | – | 7 mg/L | 11 mg/L | 40 mg/L | 4 to 8 mg/L |
| CCCCCCCCCCCC(=O)N[C@@H](CS)C(=O)NCC(=O)N[C@@H](CCCCN)C(=O)N[C@@H](CCCCN)C(=O)N1CCC[C@H]1C(=O)NCC(=O)NCC(=O)N[C@@H](Cc1c[nH]c2ccccc12)C(=O)N[C@@H](CCCCN)C(=O)N[C@@H](CS)C(=O)N[C@@H](CCCCN)C(=O)N[C@@H](CC(C)C)C(N)=O [Peptide C12-Turg-1, C12- CGKKPGGWKC KL-NH2] (Lauroyl-CGKKPGGWKCKL-NH2) | 4 mg/L | 4 mg/L | 8 mg/L | 4 mg/L | 8 mg/L | 16 mg/L | 6 mg/L | 6 mg/L | 32 mg/L | 64 mg/L | 8 mg/L | > 86 | > 204 | > 38 | – | >971 mg/L | 5 mg/L | 11 mg/L | 25 mg/L | – |
